Values after ≈ are worked out from the molar mass of the structure shown. Read-outs that look alike come from different tables or passages of the source.

Data set [1] deals with Pseudomonas aeruginosa ATCC 27853. Put plainly: Bactericidal activity (MBC). The class given is cell-based. The note with it: ATCC27853.
The subject of data set [2] is Acinetobacter baumannii ATCC 17978. Put plainly: Bactericidal activity (MBC). The class given is cell-based. The following applies: ATCC17978.
Data set [3] relates to human liver microsomial enzymes. Put plainly: Metabolic stability assay. The class given is in vitro ADME. The following applies: human liver microsomes, 1 h of incubation at 37° C., 50 μM. The procedure:
The reaction was stopped by cooling in ice and adding 1.0 mL of acetonitrile. The reaction mixtures were then centrifuged, and the parent drug and metabolites were subsequently determined by LC-UV-MS as reported for the solubility assay
In general terms: Liver microsomes are a subcellular fraction often used to study metabolism.

Data set [4] in a line: Parallel Artificial Membrane Permeability Assay (PAMPA). The class given is in vitro ADME. The following applies: pH 7.4, 5 h at room temperature, read-out: apparent permeability (Papp). The procedure: Donor solution (0.5 mM) was prepared by diluting 1 mM dimethylsulfoxide (DMSO) compound stock solution using tris-HCl buffer (50 mM) at pH 7.4. Filters were coated with 5 μL of a 1% (w/v) dodecane solution of phosphatidylcholine. Donor solution (150 μL) was added to each well of the filter plate. To each well of the acceptor plate were added 300 μL of solution (50% DMSO in phosphate buffer). Compound 28 was tested in three different plates on different days. The sandwich was incubated for 5 h at room temperature under gentle shaking. After the incubation time, the plates were separated, and samples were taken from both receiver and donor sides and analyzed using LC with UV detection at 210 and 254 nm. LC analysis were performed with a Perkin-Elmer (series 200) instrument equipped with an UV detector (Perkin-Elmer […], UV/vis Detector). Chromatographic separation were conducted using a Polaris C18 column (150-4.6 mm, 5 μm particle size) at a flow rate of 0.8 mL min-1 with a mobile phase composed of 50% CH3CN/50% H2O-formic acid 0.1%. Permeability (Papp) was calculated according to equation 1, obtained from Sugano [12] and Wohnsland [13] equation with some modification to obtain values in cm/s. […]
(In PAMPA a lipid-coated filter parts donor from acceptor wells.)

Data set [5] relates to Gram-positive and Gram-negative organisms. Put plainly: Antimicrobial susceptibility testing, overall statements on the panel. The class given is cell-based. The note with it: overall comparison over the tested strains. How it is done:
(§1) Bacterial strains were obtained from the ATCC or CCUG culture collections or present in the authors' collection of clinical isolates. Compounds were re-suspended in dimethyl sulfoxyde (DMSO) at a final concentration of 10 mg/ml and subsequently diluted in the culture medium. The minimum inhibitory concentrations (MICs) of the compounds of the invention were determined using the microdilution broth method using Mueller-Hinton broth as recommended by the Clinical Laboratory Standards Institute (CLSI [11]). Bacterial inoculum was 5×10^4 CFU/well. MICs were recorded after 18-24 hours incubation at 35-37° C.

The next data set is described as follows: Water solubility. The class given is physicochemical. The note with it: thermodynamic from solid, room temperature, LC-UV-MS. The procedure: Solid compound 28 (1.01 mg) was added to 1 mL of water. The sample was shaken in a shaker bath at room temperature for 24 h. The suspension was filtered through a 0.45-μm nylon filter (Acrodisc), and the solubilised compound determined by LC-UV-MS assay. The determination was performed in triplicate. For the quantification was used an LC-UV-MS system consisted of a Varian apparatus (Varian Inc) including a vacuum solvent degassing unit, two pumps (212-LC), a Triple Quadrupole MSD (Mod. 320-LC) mass spectrometer with ES interface and Varian MS Workstation System Control Vers. 6.9 software. Chromatographic separation was obtained using a Pursuit C18 column (50×2.0 mm) (Varian) with 3 μm particle size and gradient elution: eluent A being CH3CN and eluent B consisting of an aqueous solution of formic acid (0.1%).
The flow rate was 0.4 ml/min and injection volume was 20 μL. The instrument operated in positive mode and parameters were: detector 1850 V, drying gas pressure 25.0 psi, desolvation temperature 300.0° C., nebulizing gas 45.0 psi, needle 5000 V and shield 600 V. Nitrogen was used as nebulizer and drying gas. Collision induced dissociation was performed using Argon as the collision gas at a pressure of 1.8 mTorr in the collision cell, the collision energy was set to 149 eV. UV lamp was set to 210 nm. […]

The subject of data set [6] is Staphylococcus aureus ATCC 25923. Put plainly: Bactericidal activity (MBC). The class given is cell-based. The note with it: ATCC25923.
Data set [7] concerns Enterobacter cloacae VA-417/02 (VIM-4). Put plainly: Antimicrobial susceptibility testing, MIC by microdilution broth method. The following applies: Enterobacter cloacae, read-out: MIC. The class given is cell-based. The procedure:
as §1
(§2) The Antibacterial activity of compound 28 was also tested on a panel of Gram-negative and Gram-positive clinical isolates, showing various antimicrobial susceptibility profiles (Table 4). The class of drugs for which the isolate was resistant to is indicated in column 2 (PEN, penicillins; ES-CEPH, expanded-spectrum cephalosporins; CARB, carbapenems; AZT; aztreonam; AG, aminoglycosides; FQ, fluoroquinolones; SXT, trimethoprim/sulfamethoxazole; FOS, fosfomycin; GLY, glycopeptides; LNZ, linezolid; COL-R, colistin resistant; COL-S colistin sensitive; PDR, poly-drug resistant).
(In general: Broth dilution looks for growth in wells or tubes with falling amounts of substance.)

The subject of data set [8] is Klebsiella pneumoniae 081R. The data set is described as above. The class given is cell-based. The note with it: Klebsiella pneumoniae, 081R. The procedure:
as §1, §2

Data set [9] has as its system Acinetobacter baumannii AC-54/97 (IMP-2). The data set is described as above. The following applies: Acinetobacter baumannii, read-out: MIC. The class given is cell-based. The procedure: as §1, §2
Data set [10] deals with Klebsiella pneumoniae 081R. Briefly: Bactericidal activity (MBC). The class given is cell-based.
Data set [11] deals with Klebsiella pneumoniae ATCC 13833. Briefly: Bactericidal activity (MBC). The class given is cell-based. The note with it: ATCC13833.
For data set [12], the system named is Acinetobacter baumannii AC-54/97 (IMP-2). Briefly: Bactericidal activity (MBC). The class given is cell-based.
Data set [13] deals with Enterobacter cloacae VA-417/02 (VIM-4). Briefly: Bactericidal activity (MBC). The class given is cell-based.

Consider `N=C(N)NCCCCCCCCN(CCCCCCCCNC(=N)NCC1CC1)C(=O)N(CCCCCCCCNC(=N)N)CCCCCCCCNC(=N)NCC1CC1` [Compound 28, 1,3-bis(8-(3-(cyclopropylmethyl)guanidino)octyl)-1,3-bis(8-guanidinooctyl)urea], for which the MBC amounted to 4 µg/mL (≈ 4.73 µM) in data set [1]; 4 µg/mL (≈ 4.73 µM) in data set [2]; 2 µg/mL (≈ 2.37 µM) in data set [6]; 2 µg/mL (≈ 2.37 µM) in data set [10]; 1 µg/mL (≈ 1.18 µM) in data set [11]; 2 µg/mL (≈ 2.37 µM) in data set [12]. This compound also came in with an MBC in data set [13] of 1 µg/mL (≈ 1.18 µM). The same compound showed a metabolic stability in [3] of 99.9%. Further, the Papp at 5 h, 0.5 mM in data set [4] is 1.6 ×10⁻⁶ cm/s. The “antimicrobial activity (in words)” value in data set [5] was “most active among the series”. The “antimicrobial spectrum (in words)” value in [5] was “active against both Gram-positive and Gram-negative organisms”. The solubility at 24 h in the data set “Water solubility” was determined as 292 µg/mL (≈ 345 µM). The MIC was 1 µg/mL (≈ 1.18 µM) in data set [7] (Enterobacter cloacae VA-417/02 (VIM-4), Tables 2 and 3); 2 µg/mL (≈ 2.37 µM) in [7] (Table 4, Enterobacter cloacae VA-417/02, resistance profile PEN, CEPH, CARB, AG, FQ); 4 µg/mL (≈ 4.73 µM) in [8] (Table 4, resistance profile PDR, read-out: MIC); 2 µg/mL (≈ 2.37 µM) in data set [8] (Tables 2 and 3, read-out: MIC); 2 µg/mL (≈ 2.37 µM) in [9] (Acinetobacter baumannii AC-54/97 (IMP-2), Tables 2 and 3); 4 µg/mL (≈ 4.73 µM) in [9] (Table 4, Acinetobacter baumannii AC-54/97, resistance profile PEN, ES-CEPH, CARB, AZT, AG, FQ, FOS, SXT).

The MBC is the lowest tested concentration that kills the bacteria rather than only halting them. Read a low MBC as greater bactericidal potency. The Papp is a coefficient for how fast a substance crosses the barrier. By solubility is commonly meant how much of the substance goes into solution per volume. Lower therefore signals a poorly soluble substance. A word on the MIC: it is the smallest concentration in the dilution series that meets the test's criterion for growth inhibition.

The values are drawn from patent US10004702B2, “Linear guanidine derivatives, methods of preparation and uses thereof” (LEAD DISCOVERY SIENA S.R.L., priority 2014, dated 2018).
